Patent US20260070922A1, “PYRAZOLE AND IMIDAZOLE DERIVATIVES AS DUAL OREXIN AND KAPPA-OPIOID RECEPTORS MODULATORS COMPOSITION, METHODS FOR TREATING NEUROLOGICAL AND PSYCHIATRIC DISORDERS” (HAGER BIOSCIENCES, LLC, priority 2022, published 2026)

How the values were obtained:
[1] = target: T1, human k-opioid receptor (kOR) (Homo sapiens, UniProt P41145); experiment: Human k-opioid (KOP) receptor (agonist radioligand [3H]U-69593) binding assay, transfected RBL cell membranes; settings: for IC50: first value of IC50/Ki cell; for inhibition at 1 µM: read-out: KOR % Inh. @ 1 uM
T1 construct: expressed in transfected cells; host or cells: RBL cells (membrane homogenates)
Outline: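 Membranes from transfected RBL cells (~80 μg protein) incubated 60 min at 22° C with 0.5 nM [3H]U-69593 in 50 mM Tris-HCl pH 7.4, 10 mM MgCl2, 1 mM EDTA. Nonspecific binding defined with 10 μM naloxone; filtration and scintillation counting. Values are percent inhibition of specific radioligand binding.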

[2] = target: T1, human k-opioid receptor (kOR); experiment: as above; settings: second value of IC50/Ki cell
[3] = target: T2, human orexin-2 receptor (OX2R) (Homo sapiens, UniProt O43614); experiment: In vitro orexin antagonism assay: intracellular calcium measurement (FLIPR), orexin-A 3 nM as agonist; format: cell-based; settings: for IC50: first value of IC50/Kb cell; for inhibition at 1 µM: read-out: OX2R, % Inh. @ 1 uM; for Kb: second value of IC50/Kb cell
T2 construct: expressed in transfected cells; host or cells: CHO cells (G418 selection)
T2 sequence (O43614 1-444): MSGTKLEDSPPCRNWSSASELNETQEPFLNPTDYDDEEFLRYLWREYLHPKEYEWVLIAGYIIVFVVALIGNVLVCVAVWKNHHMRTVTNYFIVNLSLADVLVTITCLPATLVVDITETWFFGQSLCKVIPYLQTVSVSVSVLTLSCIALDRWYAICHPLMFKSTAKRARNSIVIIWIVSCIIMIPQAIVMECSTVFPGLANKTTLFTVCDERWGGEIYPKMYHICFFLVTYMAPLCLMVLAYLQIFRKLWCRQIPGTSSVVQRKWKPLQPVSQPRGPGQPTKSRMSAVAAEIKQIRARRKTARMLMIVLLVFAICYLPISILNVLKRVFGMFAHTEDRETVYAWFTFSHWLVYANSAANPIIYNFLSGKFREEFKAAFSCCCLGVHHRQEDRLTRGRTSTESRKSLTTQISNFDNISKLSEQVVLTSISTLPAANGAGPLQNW
Outline: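 Fluorescence peak on 3 nM orexin-A challenge, read by FLIPR and compared with vehicle, yields IC50 (geometric mean when repeated; may be normalized to an on-plate reference). Antagonists were added 120 min beforehand to fluo-4-loaded recombinant CHO cells expressing human OX1R or OX2R.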

[4] = target: T3, Orexin type 1 (OX1R) receptor (Homo sapiens, UniProt O43613); experiment: as above; format: cell-based; settings: for IC50: first value of IC50/Kb cell; for inhibition at 1 µM: read-out: OX1R, % Inh. @ 1 uM; for Kb: second value of IC50/Kb cell
T3 construct: expressed in transfected cells; host or cells: CHO cells (G418 selection)
T3 sequence (O43613 1-425): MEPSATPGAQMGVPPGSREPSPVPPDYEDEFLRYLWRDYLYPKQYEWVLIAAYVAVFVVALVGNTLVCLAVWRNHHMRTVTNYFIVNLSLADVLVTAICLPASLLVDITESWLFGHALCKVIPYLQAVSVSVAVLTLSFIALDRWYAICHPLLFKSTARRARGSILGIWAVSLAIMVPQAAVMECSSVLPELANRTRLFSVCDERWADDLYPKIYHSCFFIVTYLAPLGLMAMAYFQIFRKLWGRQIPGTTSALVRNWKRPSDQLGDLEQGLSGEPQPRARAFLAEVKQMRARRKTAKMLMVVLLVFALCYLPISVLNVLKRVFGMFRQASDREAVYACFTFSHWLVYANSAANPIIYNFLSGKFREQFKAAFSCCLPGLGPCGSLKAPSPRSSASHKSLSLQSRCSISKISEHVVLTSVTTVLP
Outline: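 CHO cells expressing the human orexin receptor were loaded with 3 μM fluo-4 AM plus 5 mM probenecid, then exposed to antagonist for 120 min before 3 nM orexin-A (final) was added on a FLIPR.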

T1 sequence (P41145 whole entry): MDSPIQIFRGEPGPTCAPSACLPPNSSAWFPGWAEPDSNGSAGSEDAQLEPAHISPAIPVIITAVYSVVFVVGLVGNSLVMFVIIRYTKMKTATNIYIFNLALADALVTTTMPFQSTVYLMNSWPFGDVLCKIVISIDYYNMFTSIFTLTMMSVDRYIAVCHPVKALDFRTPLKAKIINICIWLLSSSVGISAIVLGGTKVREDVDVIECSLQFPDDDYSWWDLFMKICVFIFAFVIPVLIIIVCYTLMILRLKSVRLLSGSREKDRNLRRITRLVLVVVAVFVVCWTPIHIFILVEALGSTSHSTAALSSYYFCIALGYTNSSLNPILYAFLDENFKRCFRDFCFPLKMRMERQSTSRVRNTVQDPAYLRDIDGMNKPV

| IC50 [1] [nM] | inhibition at 1 µM [1] [%] | Ki [2] [nM] | IC50 [3] [nM] | inhibition at 1 µM [3] [%] | Kb [3] [nM] | IC50 [4] [nM] | inhibition at 1 µM [4] [%] | Kb [4] [nM] | Structure (SMILES) |
| --- | --- | --- | --- | --- | --- | --- | --- | --- | --- |
| 910 | 61 | 500 | 520 | 55 | 90 | 83 | 92 | 18 | O=C(c1c(-c2ccccc2F)nn2ccccc12)N1[C@H](Cn2ccc(-c3ccc(F)cn3)n2)C[C@@H]2C[C@@H]21 [Example 107] |
| 90 | 91 | 49 | 371 | 85 | 64 | 20 | 95 | 4 | [2H]C1([2H])CC[C@@]([2H])(Cn2ccc(-c3ccc(F)cc3)n2)N1C(=O)c1c(-c2ccccc2)nc2ccc(F)cn12 [Example 177] |
| 690 | 55 | 370 | 220 | 72.3 | 31 | 5 | 98.8 | 1 | O=C(c1c(-c2ccc(F)cc2)nn2ccccc12)N1CCC[C@H]1Cn1ccc(-c2ccccc2)n1 [Example 44] |
| 210 | 74 | 120 | 36 | 76 | 6 | 37 | 88 | 8 | O=C(c1c(-c2ccccc2)nc2cc(C(F)(F)F)ccn12)N1CCC[C@H]1Cn1ccc(-c2ccc(F)cn2)n1 [Example 94] |
| 720 | 70 | 390 | 15 | 86 | 3 | 4 | 100 | 0.8 | O=C(c1nn2ccccc2c1-c1ccccc1)N1CCC[C@H]1Cn1cc(-c2ccc(F)cn2)cn1 [Example 112] |
| 1980 | 38 | 1080 | – | 21.4 | – | – | 100 | – | C[C@@H]1CCCN(C(=O)c2c(-c3ccccc3)nc3ccccn23)[C@@H]1CNc1ccc(C(F)(F)F)cn1 [Example 8] |

More lines, now with the values behind:

| Structure (SMILES) | IC50 [1] [nM] | inhibition at 1 µM [1] [%] | Ki [2] [nM] | IC50 [3] [nM] | inhibition at 1 µM [3] [%] | Kb [3] [nM] | IC50 [4] [nM] | inhibition at 1 µM [4] [%] | Kb [4] [nM] |
| --- | --- | --- | --- | --- | --- | --- | --- | --- | --- |
| O=C(c1c(-c2ccccc2)nc2cc(C(F)(F)F)ccn12)N1CCC[C@H]1Cn1ccc(-c2ccc(F)cc2)n1 [Example 53] | 56 | 93 | 31 | 33 | 95.5 | 5 | 21 | 97.6 | 4 |
| O=C(c1c(-c2ccccc2)nc2cc(C(F)(F)F)ccn12)N1CCC[C@H]1Cn1cc(-c2ccccc2)cn1 [Example 80] | 46 | 95 | 25 | 79 | 78 | 14 | 190 | 87 | 40 |
| O=C(c1c(-c2ccccc2)nc2ccc(F)cn12)N1CCC[C@H]1Cn1ccc(-c2ccc(F)cn2)n1 [Example 92] | 170 | 79 | 94 | 930 | 61 | 160 | 250 | 75 | 52 |
| C[C@@H]1CCCN(C(=O)c2c(-c3ccccc3)nc3ncccn23)[C@@H]1CNc1ccc(C(F)(F)F)cn1 [Example 34] | 730 | 57 | 400 | – | 1.8 | – | 53 | 79.8 | 11 |
| O=C(c1c(-c2ccccc2)nc2ccc(F)cn12)N1CCC[C@H]1Cn1cc(-c2ccccc2)cn1 [Example 75] | 140 | 86 | 77 | 160 | 76 | 28 | 160 | 93 | 33 |
| O=C(c1c(-c2ccccc2)nc2cc(F)ccn12)N1CCC[C@H]1Cn1ccc(-c2ccc(F)cc2)n1 [Example 50] | 590 | 59 | 320 | 18 | 89 | 3 | – | 99 | – |
| O=C(c1c(-c2ccccc2)nn2ccccc12)N1CCCC[C@H]1COc1ccc(C(F)(F)F)cn1 [Example 24] | 1100 | 52 | 630 | – | 60.1 | – | 5 | 98 | 1 |
